Measurements as given in patent EP0007294A2, “Membrane stabilizing compounds having beta-receptor blocking activity, their preparation, method for treatment of arrhythmic conditions, and pharmaceutical preparations containing same” (priority 1978, dated 1980).
Where two headings read alike, the source gives them in different places.

Assays:
[1] = system: ouabain-induced arrhythmias; experiment: Ouabain-induced arrhythmias in anesthetized guinea-pigs; format: in vivo; settings: for A-A EFFECT IN NUMBER OF ANIMALS: animals with antiarrhythmic effect / animals tested; for LOWEST FREQUENCY: frequency of ventricular premature beats after test solution; for ASYSTOLE: time of asystole under continued ouabain; for V-FIB: time of ventricular fibrillation under continued ouabain
Method: Guinea-pigs of either.sex (300-400 g) were anesthetized with urethane 1,4 g/kg i.p. and tracheotomized. ECG, lead II was picked up with needle electrodes and was registered continuously throughout the experiment. Two i.v. catheters were inserted: one for the administration of ouabain, the other for the test solution.
The experimental design for the study of antiarrhythmic activities is schematically shown in the head of Table 2. The arrhythmia was induced by automatic infusion of ouabain, 18 µg/kg/60" every two minutes for twelve minutes and thereafter 9 µg/kg/30" every two minutes throughout the whole experiment and the infusion was not stopped until asystole occurred. As soon as the frequency of ventricular premature beats (VPB) had passed 50 per cent, the test solution was given i.v. (0,2 ml/min) during 2 min. (see head of Table 2).

[2] = Alternative chloroform test on mice: ventricular tachycardia inhibition and ataxia; format: in vivo; settings: mouse, in vivo
Method: (§1) In an alternative chloroform test on mice the ventricular tachycardia inhibition by the test compounds are observed. Thereby the test solution is given subcutaneous and the animal is observed for CNS-effects for 20 min. The mouse is put into a chamber with chloroform until it stops breathing (approx 30 sec.). The animal is then secured on a cork-board and ECG is monitored. If the ventricular rythm is less than 520 beats per min., the animal was protected against ventricular tachycardia. Groups of 10 animals were tested for each dose-level'and the ED50-values have been calculated therefrom. During the test the side-effect ataxia (incordination of movements) is observed.
(§2) In Table 5, as shown, the new compounds tested exerted antiarrhythmic effects also in this te-st.

[3] = system: chloroform induced ventricular tachy-cardia; experiment: as above; format: in vivo; settings: for ED50: Mus musculus
Method: as §1, §2

[4] = system: ectopics; experiment: Conscious dogs with ligation of a coronary artery according to Harris: ectopics and convulsions; format: in vivo; settings: for ED50 / ED90: Canis lupus familiaris; for ED50: read-out: Conscious dog Harris ligation Ectopics -50%; for ED90: read-out: Conscious dog Harris ligation Ectopics -90%
Source text: (§3) Male beagle dogs, 7-13 kg, undergo two days prior to the test a surgical ligation of a coronary artery. On the day of the test the conscious dog is secured in a canvas sling in a standing position and given increasing doses of the test compounds by intravenous administration. ECG, blood pressure etc are monitored and attention is paid to all CNS-effects. The dogs have almost 100 percent of ectopics prior to administration of the compound to be tested. Effects of the test drug on the frequency of ectopics are calculated from ECG. The accumulative end doses giving 50% and 90% reduction of ectopics as well as the ED50 values which give convulsions (side-effect) are measured and given below in Table 3. The value for convulsions is a mean value for 3-5 dogs.
(§4) x) The value given is the final value in a series of doses 0.5 + 1 + 2 + 4 + 8 mg/kg i.v. giving 50% reduction of ectopics. 30 min interval between doses.
(§5) Table 3: Antiarrythmic effect and CNS-effects of four β-receptor blockers, a membrane stabilizer, and ten new compounds with combined β-blocking and membrane stabilizing effect.

[5] = as above; format: in vivo; settings: in vivo
Source text: as §3, §4, §5

[6] = system: chloroform-induced ventricular arrhythmias; experiment: Chloroform-induced ventricular arrhythmias (fibrillation) in mice, intraperitoneal dose
Source text: Mice were given an intraperitoneal dose of the test compound. Twenty minutes after dose, they were suffocated in chloroform vapor.- When the animals stopped breathing, the chest was opened to inspect for fibrillation. If the heart was not fibrillating, it was prodded.
Signs of CNS toxicity were noted during the 20-minute interval between dosing and challenge.
"Protected" means number of animals protected against CHC13- induced ventricular fibrillation.

[7] = sc., mice, observed for 20 min, read-out: Ataxia ED50
[8] = sc., mice, chloroform, groups of 10 animals per dose-level
[9] = iv., accumulative end dose giving 50% reduction of ectopics
[10] = iv., accumulative end dose giving 90% reduction of ectopics
[11] = iv., conscious dog, mean value for 3-5 dogs, read-out: ED50 Convulsive

| SMILES | ED50 [3, 8] [mg/kg] | ED50 [4, 9] [mg/kg] | ED90 [4, 10] [mg/kg] | TD50 ([5]; dog, iv) [mg/kg] | TD50 at 20 min ([2]; sc) [mg/kg] | also measured |
| --- | --- | --- | --- | --- | --- | --- |
| CC(C)NC[C@@H](O)COc1cccc2ccccc12 [D-Propranolol] | ~8 | 1 | 4 |  |  | A-A EFFECT IN NUMBER OF ANIMALS ([1]; dose 0.3 mg/kg i.v.): 6/8; A-A EFFECT IN NUMBER OF ANIMALS ([1]; dose 1.0 mg/kg i.v.): 6/6; LOWEST FREQUENCY ([1]; dose 0.3 mg/kg i.v.): 36±5%; LOWEST FREQUENCY ([1]; dose 1.0 mg/kg i.v.): 5±3%; ASYSTOLE ([1]; dose 0.3 mg/kg i.v.): 22 ± 1 min; ASYSTOLE ([1]; dose 1.0 mg/kg i.v.): 29 ± 1 min; V-FIB ([1]; dose 0.3 mg/kg i.v.): 14 ± 1 min; V-FIB ([1]; dose 1.0 mg/kg i.v.): 23 ± 2 min; TD50 at 20 min [2, 7]: ~30 mg/kg; TD50 [5, 11]: 8 mg/kg |
| COCc1ccc(OCC(O)CNCCCCc2ccccc2)cc1 (stereo not shown) [Ex. 8, 3-[4-phenylbutylamino)-1-(4-methoxymethylphenoxy)-propanol-2] |  | 4 | > 8 | 8 |  |  |
| COCCc1ccc(OCC(O)CNCCCCc2ccc(OC)c(OC)c2)cc1 (stereo not shown) [Ex. 15] | 1.2 | 1 | 4 | 6 | > 6.3 |  |
| COCCc1ccc(OCC(O)CNCCc2ccccc2)cc1 (stereo not shown) [Ex. 14, 3-(2-phenethylamino)-1-[4-(2-methoxyethyl)phenoxy]-propanol-2] |  |  |  |  |  | Ataxia ED50 ([3]; mouse, in vivo, sc, 20 min): 40 mg/kg; Ventricular tachy-cardia inhibition ED50 [3, 8]: 10 mg/kg; ED50 Convulsive ([4]; dog, in vivo, iv): 6 to 8 mg/kg; Conscious dog Harris ligation Ectopics -50% [4, 9]: 1 mg/kg; Conscious dog Harris ligation Ectopics -90% [4, 10]: 2 mg/kg |
| COCCc1ccc(OCC(O)CNCc2ccccc2)cc1 (stereo not shown) [Ex. 9, 3-phenylmethylamino-1-[4-(2-methoxyethyl)phenoxy]-propanol-2] | 35 | 2 | 4 | 8 | 60 |  |
| COCCc1ccc(OCC(O)CNCCCc2ccccc2)cc1 (stereo not shown) [Ex. 10, 3-(3-phenylpropylamino)-1-[4-(2-methoxyethyl)phenoxy]-propanol-2] | 3 | 2 | 4 | > 8 | > 50 |  |
| CC(=O)Nc1ccc(OCC(O)CNC(C)C)cc1 (stereo not shown) [Practolol, reference compound] | 2 | > 16 | > 16 |  |  | TD50 at 20 min [2, 7]: > 50 mg/kg; TD50 [5, 11]: > 16 mg/kg |
| Cc1cccc(C)c1NC(=O)C(C)N (stereo not shown) [Tocainide, reference compound] | 90 | 4 | 8 | > 8 | 130 |  |
| COCCc1ccc(OCC(O)CNCCc2ccccc2)cc1 (stereo not shown) [Ex. 1] |  |  |  |  |  | A-A EFFECT IN NUMBER OF ANIMALS ([1]; dose 0.3 mg/kg i.v.): 4/8; A-A EFFECT IN NUMBER OF ANIMALS ([1]; dose 1.0 mg/kg i.v.): 9/9; LOWEST FREQUENCY ([1]; dose 0.3 mg/kg i.v.): 38±13%; LOWEST FREQUENCY ([1]; dose 1.0 mg/kg i.v.): 9±4%; ASYSTOLE ([1]; dose 0.3 mg/kg i.v.): 28 ± 1 min; ASYSTOLE ([1]; dose 1.0 mg/kg i.v.): 38 ± 4 min; V-FIB ([1]; dose 0.3 mg/kg i.v.): 19 ± 1 min; V-FIB ([1]; dose 1.0 mg/kg i.v.): 31 ± 4 min; Number of Animals Dead ([6]; dose 100 mg/kg intraperitoneal, 10 treated): 0; Number of Animals Protected ([6]; dose 100 mg/kg intraperitoneal, 10 treated, protected against CHCl3-induced ventricular fibrillation): 9; Number of Animals Convulsive ([6]; mouse, in vivo, ip, 100 mg/kg): 1; Number of Animals LRR ([6]; mouse, in vivo, ip, 100 mg/kg): 0 |
